One test relates to HBSO neurons. The test is described as follows: Multi-electrode array (MEA) analysis of dissociated day 60 HBSO neurons. The format is cell-based, human. Conditions: 10 μM, applied immediately before recording. As to the method: The functionality of HBSO neurons, particularly their responses to hypercapnia, is further assessed using multi-electrode array (MEA) analyses. Briefly, Day 60 HBSOs arc dissociated with Papain Dissociation System (Worthington, LK003150) following the manufacturer's protocol. In brief, the HBSOs are digested with the papain solution in 37° C. incubator for 30 min with continuous shaking at 90 r.p.m. and then triturated with P1000 pipette. The triturated HBSOs are further digested in 37° C. incubator for an additional 10 min and then filtered through 40 μm cell strainer (Corning, 352340) to remove undigested cell debris. The dissociated cells are collected by centrifuging at 300×g for 5 min at room temperature. The cells are then resuspended with DNase/ovomucoid inhibitor solution to stop the digestion. […] MEA recordings are measured at 37° C. with 5-8% CO2 in a Maestro Edge MEA System (Axion Biosystems) to detect spontaneous firing of spikes. The MEA plate is pre-equilibrated in the MEA system for at least 5 min before measurement and each treatment is recorded for 5-10 min to calculate the mean spike firing rate. […] The MEA recordings are analyzed using the Neural Module of AxIS Navigator 1.5 software and the Neural Metric Tool software (Axion Biosystems). […]

A further test relates to HBSOs. Description: HBSO differentiation with WNT antagonist added on days 3-6 (growth, RT-qPCR of patterning markers at day 20). The format is cell-based, human. As to the method:
To generate HSBOs, hPSCs are dissociated into single cell suspension by treating with 0.5 mM EDTA solution in DPBS and then Accutase as described above. 2.7×10^6 cells are seeded to a well of AggreWell800 24-well plate (STEMCELL Technologies, 34815) which contained 300 microwells per well (i.e. 9,000 cells per microwell). The cells are kept in mTeSR1 with 10 μM Y-27632 overnight in 37° C. incubator for the spheroid formation and they are marked as day 0 at this stage. At day 1, the spheroids from one well of Aggre Well800 are split into 3 wells of 6-well ultra-low-attachment plate containing Neural Induction Medium (DMEM/F12, 1% N2 supplement (v/v), 1% GlutaMAX supplement (v/v), 1% MEM-NEAA (v/v) and 1 μg ml^−1 Heparin) supplemented with BMP inhibitor LDN-193189 (1 μM) and TGF-β inhibitor SB431542 (10 μM). […]
Total RNA from HCOs and HBSOs are extracted by RNeasy Mini Kit (Qiagen) and the RNA concentrations are determined by Nanodrop 1000 Spectrophotometer (Thermo Fisher Scientific). […] Fluorescence is measured by ViiA 7 Real-Time PCR System (Thermo Fisher Scientific) at the end of each cycle. […]
For orientation: Quantitative PCR measures a nucleic acid by following its amplification.

With `CC1CCN(CC[C@H]2CCCN2S(=O)(=O)c2cccc(O)c2)CC1` [SB269970], the “hypercapnia responses of HBSO neurons” value with HBSO neurons (FIG. 1K) is reported as “counteraction of these responses”.

For `NCCc1c[nH]c2ccc(O)cc12` [5-HT, serotonin], the “firing of HBSO neurons” value in the test with HBSO neurons (FIG. 1J) is given as “capable of enhancing the firing”.

In the case of `O=C(Nc1cccc2cccnc12)c1ccc(N2C(=O)[C@@H]3[C@H](C2=O)[C@@H]2C=C[C@H]3C2)cc1` [IWR1-endo], in the test on HBSOs (1 μM or 10 μM, day 20 RT-qPCR, FIG. 1D), the “favoring the dB2 domain formation (PHOX2B expression)” value is recorded as “does not provide additional benefits”. In addition, in the test on HBSOs (10 μM), the “growth of the HBSOs” value was “inhibited the growth”.

Source of the values: US20240425812A1, “HYPOVENTILATION PHYSICAL MODELS AND APPLICATIONS THEREOF” (The University of Hong Kong, priority 2023, published 2024).
